Experimental findings from patent US9011853B2, “B7-H4 fusion proteins and methods of use thereof” (Amplimmune, Inc., priority 2009, dated 2015) are described below.

Several values for one entry are separate records, joined by “and”; a condition that tells them apart may be missing. Equal entries are not always repeated.

Test [1] deals with DBA/1 mice. Briefly: Therapeutic CIA study AA#80 (male mice), disease score. In kind it is in vivo, mouse. The settings on record: individual mice (Tag #). The method, then: (§1) DBA/1 mice (10 per group) aged 7-9 weeks were used for the CIA model. Mice from several vendors (Jackson Laboratories, Harlan Laboratories, and Taconic Farms) were tested and it was determined that Taconic mice are most appropriate for the CIA studies. Taconic mice develop more consistent and severe disease symptoms and show continued disease progression, while mice from the other vendors often show stable, less severe disease, even in the absence of treatment. female (F) mice in AA#79 and male (M) mice in AA#80, were tested to determine which gender to use in future experiments.
(§2) On the day before the study is initiated, the hair on the right flank of each mouse was removed using an electric clipper. A metal identification tag was placed on the right ear of each mouse. On Day 0, mice were immunized with 100 μL of chicken collagen type II/Complete Freund's Adjuvant (CII/CFA) emulsion in the right flank. On Day 20, the hair on the left flank of each mouse was removed using an electric clipper, and on Day 21, mice were immunized with 100 μL of chicken collagen type II/Incomplete Freund's Adjuvant (CII/IFA) emulsion in the left flank. Pre-filled syringes of CII/CFA and CII/IFA emulsion purchased from Hooke Laboratories were used to ensure consistent dosing with and potency of the immunogen.
(§3) Early arthritis symptoms, such as erythema and mild swelling, usually appear on Day 21, and on Day 28, more severe symptoms such as swelling in many digits and inflammation extending to the tarsal joint are typically present. Each limb is evaluated for severity of arthritis symptoms three times a week using a widely accepted arthritis severity score system, shown in Table 2. The scores from each of the 4 limbs are summed to yield the disease score of each mouse. […]
(§4) Treatment was initiated when the average disease score for the study animals was greater than four. This corresponded to Day 29 in AA#79 and Day 24 in […]. By waiting until animals are symptomatic, it was ensured that the model is performed in a therapeutic rather than prophylactic mode.
(§5) B7-H4-Ig, RPA110010, and murine B7-H4-Ig proteins were administered by intraperitoneal (IP) injection 3 times a week for a total of 8 doses. RPA110010 is an extracellular domain variant of B7-H4-Ig, SEQ ID NO:126. Control murine and human IgG proteins were given once a week for a total of 3 doses. […] All proteins were diluted to the desired concentration (500 μg in 500 μL, or 1 mg/mL) with sterile PBS immediately before injection. Vehicle control mice receive Amplimmune formulation buffer diluted 1:10 in PBS, with an injection volume of 500 μL.

In test [2] the test system is DBA/1 mice. Put plainly: Therapeutic CIA study AA#79 (female mice), disease score. Type of test: in vivo, mouse. The method, then: as §1, §2, §3, §4, §5
A further test concerns MRL/lpr mice. Briefly: MRL/lpr lupus mouse model, anti-dsDNA autoantibody ELISA. In kind it is in vivo. The following applies: individual MRL/lpr mouse, plasma diluted 1:2000. The method, then:
MRL/lpr mice at 4 weeks of age were used in this experiment. Animals were tagged with metal tags on their right ears for identification. […] In the proof-of-concept study, combination treatments with recombinant murine B7-H4-Ig and CTX were tested. Mice received single or combination treatment of murine B7-H4-Ig (Lot#DEV-110-5-006) at 5 mg/kg with or without CTX at 50 mg/kg via IP injection, once every 2 weeks (FIG. 59). Murine B7-H4-Ig dosing regimen at 5 mg/kg (100 μg/mouse/injection), twice a week, was chosen based on in vivo studies of monoclonal antibody and fusion proteins. […] Blood samples ([…]) were taken from the submandibular vein (ARC SOP 8050.02.08) 3 days before the protein treatment and the every other week during and after treatments. Blood samples were collected in Microtainer® Blood Collection Tubes, and plasma was harvested from the supernatant of blood sample after centrifugation and stored at −80° C. freezer until use.
A positive anti-dsDNA autoantibody control was generated by pooling plasma from 5 aged MRL/lpr mice, approximately 8 months of age. The positive control plasma was aliquoted and stored at −80° C. freezer before use.
The dsDNA solution (10 mg/mL) was first generated by dissolving salmon testes DNA in PBS at 37° C. in a water bath followed by filtration through a 0.45 μm membrane filter. The dsDNA solution was aliquoted and stored at −80° C. before use.
On the day prior to the autoantibody ELISA, 100 μL of the dsDNA stock solution was first added to 10 mL of PBS resulting in a final concentration of 100 μg/ml. […] of the diluted dsDNA was then added to each well of Immulon 2HB 96-well flat bottom microtiter plates. Plates were placed in a humidified incubator at 37° C. without lids for overnight coating. Plates were washed 4 times with 300 μL of PBS/T [0.1% (v/v) Tween-20 (polysorbate 20) in PBS] using a microtiter plate washer (hydroFLEX, TECAN. Software: HydroControl) and then blocked with 200 μL of blocking buffer (10% fetal bovine serum in PBS) at room temperature for at least 1 h followed by 4 washes with 300 μL of PBS/T. The negative control (normal Balb/C mouse plasma, 1:2000 dilution), positive controls (1:5000, 1:10000, 1:20000 dilutions), and samples (1:2000 dilution) were diluted with blocking buffer. Next, 100 μL of each diluted control and sample was added to corresponding wells (duplicate wells) and incubated at room temperature for 2 h or at 4° C. overnight followed by 4 washes with 300 μL of PBS/T. For detection, 100 μL of anti-mouse IgG-HRP (Sigma, A9309, diluted to 1:10000 in blocking buffer) was added to each well and the plate was incubated at room temperature for 1 h followed by 4 washes with 400 μL of PBS/T.
Later, 100 μL of room temperature, pre-warmed TMB Substrate Reagent was added to each well. When the color developed optimally (about 10 min), 100 μL of stop solution (1% sulfuric acid) was added. The plate was then read for absorbance at 450 nm (OD450) using a microtiter plate reader (SPECTRAmax, Molecular Devices. Software: SoftMax Pro5.2).
All the blood samples were analyzed at the end of the study. The OD450 value of test samples was normalized relatively to the internal positive control at the 1:10000 dilution. The relative value rather than the absolute Ab concentration was used for comparison.
Female MRL/lpr mice at age of 4 weeks were divided into 4 groups (FIG. 59): vehicle, CTX alone, murine B7-H4-Ig alone and CTX plus murine B7-H4-Ig combination treatment (Combo). CTX was given IP, 50 mg/kg, once every 2 weeks. Murine B7-H4-Ig was administrated IP, 100 μg (5 mg/kg), and twice every week. The Combo group received CTX injection every 2 weeks and murine B7-H4-Ig 2 times every week at 5 mg/kg. Mice were treated for 7 weeks.
Plasma was collected from MRL/lpr mice pre-treatment (4 wk) and periodically up to 21 weeks of age.

Take Syngis: the “AA#80 CIA disease scores” value in the test on DBA/1 mice [1] (Study Day 20) is 4 (3×) and 1 and 2 (2×) and 5 and 3 and 6; with DBA/1 mice [1] (Study Day 22), 5 (4×) and 2 (2×) and 4 (2×) and 8; in the test on DBA/1 mice [1] (Study Day 24) it was 5 (4×) and 6 (3×) and 3 and 8; in the test with DBA/1 mice [1] (Study Day 27), 6 (4×) and 4 (2×) and 5 and 7 and 8; with DBA/1 mice [1] (Study Day 29), 6 (2×) and 5 (4×) and 4 and 7 and 11; with DBA/1 mice [1] (Study Day 31), 8 (3×) and 5 and 6 (3×) and 3 and 11. Besides, the “AA#80 CIA disease scores” value was 10 and 7 (2×) and 8 (4×) and 6 and 11 in the test with DBA/1 mice [1] (Study Day 34); 10 and 8 (5×) and 7 and 11 and 13 with DBA/1 mice [1] (Study Day 36); 11 (2×) and 6 (2×) and 8 and 7 (2×) and 10 (2×) and 12 in the test on DBA/1 mice [1] (Study Day 38); 12 and 13 (2×) and 7 and 8 and 9 and 10 (2×) and 14 in the test with DBA/1 mice [1] (Study Day 41); 10 and 14 and 7 (3×) and 8 and 11 and 12 and 13 with DBA/1 mice [1] (Study Day 44). For the same molecule, the CIA disease score in the test on DBA/1 mice [2] (AA#79, Study Day 12, individual mouse (Tag#)) is 0 (2×) and 1 (3×) and 2; in the test with DBA/1 mice [2] (AA#79, Study Day 18, individual mouse (Tag#)) it was 2 (4×) and 1 (2×); in the test with DBA/1 mice [2] (AA#79, Study Day 22, individual mouse (Tag#)), 4 and 2 (4×) and 3; in the test on DBA/1 mice [2] (AA#79, Study Day 25, individual mouse (Tag#)), 2 (4×) and 5 and 3; with DBA/1 mice [2] (AA#79, Study Day 27, individual mouse (Tag#)) it was 5 (2×) and 7 and 4 (2×) and 6; in the test on DBA/1 mice [2] (AA#79, Study Day 29, individual mouse (Tag#)), 6 (3×) and 5 and 4 and 10. In addition, the CIA disease score with DBA/1 mice [2] (AA#79, Study Day 32, individual mouse (Tag#)) is 10 and 9 (2×) and 7 and 8; in the test on DBA/1 mice [2] (AA#79, Study Day 34, individual mouse (Tag#)), 10 (2×) and 9 (2×) and 6; with DBA/1 mice [2] (AA#79, Study Day 36, individual mouse (Tag#)), 11 (2×) and 9 (2×) and 10 and 8; in the test on DBA/1 mice [2] (AA#79, Study Day 39, individual mouse (Tag#)), 11 (2×) and 8 and 6 and 9 and 12; in the test with DBA/1 mice [2] (AA#79, Study Day 41, individual mouse (Tag#)), 12 and 10 (2×) and 13 and 6 and 11; with DBA/1 mice [2] (AA#79, Study Day 43, individual mouse (Tag#)), 12 (2×) and 11 (2×) and 6 and 10. Moreover, the CIA disease score with DBA/1 mice [2] (AA#79, Study Day 46, individual mouse (Tag#)) was 14 (2×) and 11 and 12 and 6 and 10; in the test on DBA/1 mice [2] (AA#79, Study Day 48, individual mouse (Tag#)) it was 13 (3×) and 11 and 5 and 12; in the test on DBA/1 mice [2] (AA#79, Study Day 50, individual mouse (Tag#)), 11 (2×) and 12 (3×) and 9; with DBA/1 mice [2] (AA#79, Study Day 54, individual mouse (Tag#)), 13 (2×) and 12 (3×) and 8; in the test with DBA/1 mice [2] (AA#79, Study Day 57, individual mouse (Tag#)), 13 (2×) and 14 and 7 and 12 and 15.

Consider `O=P1(N(CCCl)CCCl)NCCCO1` (stereo not drawn) [CTX, Cyclophosphamide], for which the “dsDNA autoantibody (OD450 normalized against positive control diluted at 1:10000)” value is 0.15 and 0.46 and 0.05 and 0.09 and 0.01 in the test with MRL/lpr mice (mouse age 4 weeks (pre-treatment)); 0.55 and 0.21 and 1.07 and 0.10 (2×) in the test on MRL/lpr mice (mouse age 7 weeks); 2.50 and 0.33 and 2.03 and 0.17 and 0.06 with MRL/lpr mice (mouse age 8 weeks); 3.46 and 2.09 and 2.26 and 0.79 and 0.26 in the test on MRL/lpr mice (mouse age 9 weeks); 1.50 and 4.05 and 2.95 and 1.97 and 0.39 in the test on MRL/lpr mice (mouse age 10 weeks); 2.97 and 4.67 and 3.75 and 2.21 and 0.55 in the test with MRL/lpr mice (mouse age 11 weeks). For the same molecule, the “dsDNA autoantibody (OD450 normalized against positive control diluted at 1:10000)” value in the test on MRL/lpr mice (mouse age 15 weeks) was 2.93 and 4.87 and 2.62 and 1.76 and 1.11; with MRL/lpr mice (mouse age 19 weeks), 2.61 and 11.76 and 3.05 and 2.58 and 1.26.
